These results are taken from patent US20200200735A9, “SYSTEM AND METHOD FOR DETECTING THERAPEUTIC AGENTS TO MONITOR ADHERENCE TO A TREATMENT REGIMEN” (UrSure, Inc., priority 2016, published 2020).

One data set has as its system HIV. Conditions: Anderson 2012; cited from earlier work.
For a further data set, the system named is HIV-1. Conditions: cited from earlier work.
A short description of data set [1]: Cohort 2: single dose of Truvada in healthy subjects, TFV clearance in plasma and urine over 7 days (LC-MS/MS). The class given is in vivo, human. The protocol: (§1) 3 cohort studies were conducted to assess a system for detection of the active metabolite tenofovir (TFV) of the prodrug nucleotide reverse transcriptase inhibitor (NRTI) tenofovir disoproxil fumarate (TDF). Cohort 1: a cross sectional study of 10 HIV positive subjects with undetectable HIV viral loads on a TDF-based regimen; Cohort 2: a single dose study of Truvada in 10 healthy subjects to evaluate TFV clearance in plasma and urine over 7 days; Cohort 3: a 16 week study of 10 HIV negative subjects receiving daily PrEP to evaluate concordance between plasma and urine over time.
A semi-quantitative liquid chromatography-tandem mass spectrometry (LC-MS/MS) urine assay was developed for detection of TFV with high sensitivity/specificity. […] To evaluate the qualitative relationship of urine TFV levels to plasma levels, the levels of TFV in the urine and plasma from Cohort 1 was evaluated. […] In addition, the TFV concentration was 3-4 logs higher in urine than plasma (FIG. 2). In cohort 2, TFV was detected for >7 days in urine and 2-4 days in plasma after a single dose of Truvada™ (FIG. 3). […] The urine assay was 2 logs more sensitive than serum over 7 days (FIG. 3).
A semi-quantitative liquid chromatography-tandem mass spectrometry (LC-MS/MS) urine assay with high sensitivity and specificity for TFV allowed us to determine TFV concentrations in log categories between <[…] to >10,000 ng/mL. Following protein precipitation (0.1 mL human plasma or urine or diluted urine sample) using 100% acetonitrile with 0.1% formic acid, containing deuterated internal standard (2H6-tenofovir, 50 ng/mL), the analytes were separated using gradient mobile phase on a reverse phase C18 column and analyzed by MS/MS (AB Sciex API4000). The multiple reaction monitoring of m/z 288.3 to 176.3 for tenofovir and m/z 294.3 to 182.2 for 2H6-tenofovir was used for analysis. […] Flow rate was 0.7 ml/min and total chromatographic run-time was 3.0 minutes/sample.
Standards (10, 100, 1000 and 10,000 ng/mL in human plasma), blanks (double blank and internal standard blank) and unknown plasma and urine samples were thawed to room temperature. One hundred μL of all standards and blanks were put into appropriate wells on a 96 well plate. Diluted unknown urine samples (95 μL blank plasma +5 μL of unknown urine samples, 20-fold dilution) or undiluted plasma samples were mixed with 400 μL of IS solution in a 96 well plate. The plate was vortexed for 30 seconds at high speed and centrifuged for 30 minutes at 4000 rpm. Supernatant was transferred to a fresh 96 well plate and a 10 μL aliquot was injected for LC-MS/MS analysis from autosampler. […] When the concentration of TFV in urine samples exceeded 1,000 ng/mL, samples were diluted 50-fold with blank urine and reanalyzed.

The conditions of data set [2]: human, in vivo. On the procedure:
as §1
(§2) A semi-quantitative liquid chromatography-tandem mass spectrometry (LC-MS/MS) urine assay was developed for detection of TFV with high sensitivity/specificity. […] To evaluate the qualitative relationship of urine TFV levels to plasma levels, the levels of TFV in the urine and plasma from Cohort 1 was evaluated. […] In addition, the TFV concentration was 3-4 logs higher in urine than plasma (FIG. 2). In cohort 2, TFV was detected for >7 days in urine and 2-4 days in plasma after a single dose of Truvada™ (FIG. 3). […]
(§3) A semi-quantitative liquid chromatography-tandem mass spectrometry (LC-MS/MS) urine assay with high sensitivity and specificity for TFV allowed us to determine TFV concentrations in log categories between <10 ng/L to >10,000 ng/mL. […]

Data set [3] can be described thus: Cohort 3: 16 week study of HIV negative subjects on daily PrEP, TFV in plasma and urine (LC-MS/MS). Conditions: Cohort 3, daily PrEP. In kind it is in vivo, human. The protocol:
as §1, §2, §3

For data set [4] the following is noted: in vivo; cited from earlier work.
The conditions of data set [5]: in vivo; cited from earlier work. The source holds these as a separate data set.

Like-named read-outs stand apart in the source and are kept apart here.

Consider `CC(Cn1cnc2c(N)ncnc21)OCP(=O)(O)OP(=O)(O)OP(=O)(O)O` (stereo in doubt) [tenofovir-diphosphate], for which the “intracellular concentration associated with a 90% reduction in HIV acquisition relative to the placebo arm” value in the data set on HIV is 16 fmol per million peripheral blood mononuclear cells (PBMCs).

Regarding `C[C@H](Cn1cnc2c(N)ncnc21)OCP(=O)(O)O` [TFV, Tenofovir], in the data set with HIV-1 (2 doses per week), the “HIV-1 risk reduction corresponding to intracellular tenofovir concentration” value (from here on “HIV-1 risk reduction corresponding”) is 76%. The “HIV-1 risk reduction corresponding” value in the data set on HIV-1 (4 doses per week) is 96%. Also, in the data set with HIV-1 (7 doses per week), the “HIV-1 risk reduction corresponding” value is given as 99%. Also, in data set [1] (after a single dose of Truvada), the “time TFV detected in plasma” value was in the range of 2 to 4 days and the “time TFV detected in urine” value is greater than 7 days. Further, the “urine TFV clearance pattern” value in data set [1] (after a single dose of Truvada, over 7 days) is recorded as “cleared in a log-linear fashion”. In addition, the “window of medication usage reflected by TFV detection in urine” value in data set [1] (after oral TDF/FTC ingestion, preliminary data) is “one to at least seven days”. In data set [2], the “TFV concentration higher in urine than plasma” value is reported as 3-4 logs. For the same compound, in data set [3], the “plasma samples with TFV detected” value is listed as 74% and the “urine samples with TFV detected” value worked out at 93%. In data set [4], the “window of exposure reflected by single plasma concentrations” value is 2 to 3 days. In data set [5], the intracellular half-life was 150 h and the plasma half-life is 17 h.
